According to patent US6479531B1, “Gastrin and cholecystokinin receptor ligands” (James Black Foundation Limited, priority 1998, dated 2002):

molecular target: T1, gastrin receptor (Rattus norvegicus, UniProt P30553); assay: gastrin antagonist activity in immature rat stomach assay (pentagastrin dose-response, acid secretion); conditions: isolated immature rat stomach, cumulative pentagastrin dose-response curves
T1 construct: The stomach was excised and flushed with ca. 1 ml of unbuffered physiological saline solution; from tissue; host or cells: isolated whole stomach of immature rats (ca. 21 days old)
T1 sequence (P30553 1-452): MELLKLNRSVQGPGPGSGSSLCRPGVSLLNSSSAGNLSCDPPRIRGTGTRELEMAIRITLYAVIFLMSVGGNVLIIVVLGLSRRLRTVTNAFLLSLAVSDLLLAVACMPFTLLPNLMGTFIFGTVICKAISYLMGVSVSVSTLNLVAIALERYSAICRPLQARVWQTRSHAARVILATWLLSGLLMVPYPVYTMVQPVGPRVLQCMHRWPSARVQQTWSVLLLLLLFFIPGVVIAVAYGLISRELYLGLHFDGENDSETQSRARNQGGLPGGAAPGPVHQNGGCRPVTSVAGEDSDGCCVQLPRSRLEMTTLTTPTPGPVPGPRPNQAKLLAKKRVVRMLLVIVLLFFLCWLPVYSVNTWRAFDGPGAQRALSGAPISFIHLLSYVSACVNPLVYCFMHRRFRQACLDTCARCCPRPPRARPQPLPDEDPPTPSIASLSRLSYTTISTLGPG
How it was run: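 Gastrin antagonism was measured as the effect on cumulative pentagastrin dose-response curves of acid output, recorded by pH electrode in the perfusate of an excised immature rat stomach (ca. 21 days old). Test compound was placed in the serosal bath (37°, 3×10^−8 M 5-methylfurmethide) 60 min before pentagastrin.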

Row | Molecule | Gastrin pKb
1 | Cc1ccc(NC(=O)c2nc(C3CCCCC3)[nH]c2CCC23CC4CC(CC(C4)C2)C3)cc1C(=O)O [Example 107] | 7.65
2 | 5-{[5-(2-Adamantan-1-yl-ethyl)-2-[1-(2-methyl-propyl)-piperidin-2-yl])-1H-imidazole-4-carbonyl]-amino}-2-methyl-benzoic Acid [Example 142] | 6.75

same assay, conditions: isolated immature rat stomach, cumulative pentagastrin dose-response curves, read-out: Gastrin pKb (converted)

Row | Molecule | Kb [nM]
3 | Cc1ccc(NC(=O)c2nc(C3CCCCCCC3)[nH]c2COC23CC4CC(CC(C4)C2)C3)cc1C(=O)O [Example 298, 5-{[5-(Adamantan-1-yloxymethyl)-2-cyclooctyl-1H-imidazole-4-carbonyl]-amino}-2-methyl-benzoic Acid] | 1.95
4 | Cc1ccccc1-c1nc(CCC23CC4CC(CC(C4)C2)C3)c(CCc2cccc(C(=O)O)c2)n1C [Example 277, 3-{2-[5-(2-Adamantan-1-yl-ethyl)-3-methyl-2-o-tolyl-3H-imidazol-4-yl]-ethyl}-benzoic Acid] | 1000
5 | Cc1cc(C)c(-c2nc(COC34CC5CC(CC(C5)C3)C4)c(C(=O)Nc3cccc(C(=O)O)c3)n2O)c(C)c1 [Example 312, 3-{[5-(Adamantan-1-yloxymethyl)-2-(2,4,6-trimethyl-phenyl)-3-hydroxy-3H-imidazole-4-carbonyl]-amino}-benzoic Acid] | 34.7
6 | CC(C)(C(=O)O)c1cccc(NC(=O)c2nc(C3CCCCC3)[nH]c2CCC23CC4CC(CC(C4)C2)C3)c1 [Example 256, 2-(3-{[5-(2-Adamantan-1-yl-ethyl)-2-cyclohexyl-1H-imidazole-4-carbonyl]-amino}-phenyl)-2-methyl-propionic Acid] | 708
7 | O=C(O)c1cccc(NC(=O)c2nc(C3CCOCC3)[nH]c2COC23CC4CC(CC(C4)C2)C3)c1 [Example 233, 3-{[5-(Adamantan-1-yloxymethyl)-2-(tetrahydro-pyran-4-yl)-1H-imidazole-4-carbonyl]-amino}-benzoic Acid] | 70.8
8 | Cc1c(NC(=O)c2nc(C3CCCCC3)[nH]c2COC23CC4CC(CC(C4)C2)C3)cccc1C(=O)O [Example 218, 3-{[5-(Adamantan-1-yloxymethyl)-2-cyclohexyl-1H-imidazole-4-carbonyl]-amino}-2-methyl-benzoic Acid] | 148
9 | Cc1cc(C)c(-c2nc(C(=O)Nc3cccc(CC(=O)O)c3)c(CCC34CC5CC(CC(C5)C3)C4)[nH]2)c(C)c1 [Example 157, (3-{[5-(2-Adamantan-1-yl-ethyl)-2-(2,4,6-trimethyl-phenyl)-1H-imidazole-4-carbonyl]-amino}-phenyl)-acetic Acid] | 219
10 | O=C(O)c1cccc(NC(=O)c2nc(-c3c(Cl)cccc3Cl)[nH]c2COC23CC4CC(CC(C4)C2)C3)c1 [Example 311, 3-{[5-(Adamantan-1-yloxymethyl)-2-(2,6-dichloro-phenyl)-1H-imidazole-4-carbonyl]-amino}-benzoic Acid] | 8.71
11 | Cc1c(NC(=O)c2nc(C34CCC(CC3)CC4)[nH]c2COC23CC4CC(CC(C4)C2)C3)cccc1C(=O)O [Example 222, 3-{[5-(Adamantan-1-yloxymethyl)-2-bicyclo[2.2.2]oct-1-yl-1H-imidazole-4-carbonyl]-amino}-2-methyl-benzoic Acid] | 20.4
12 | Cc1ccc(NC(=O)c2nc(C3C4CCC3CC4)[nH]c2COC23CC4CC(CC(C4)C2)C3)cc1C(=O)O (stereo not shown) [Example 293, 5-{[5-(Adamantan-1-yloxymethyl)-2-bicyclo[2.2.1]hept-7-yl-1H-imidazole-4-carbonyl]-amino}-2-methyl-benzoic Acid] | 3.02
13 | O=C(NO)c1cccc(NC(=O)c2nc(C3CCCCC3)[nH]c2COC23CC4CC(CC(C4)C2)C3)c1 [Example 286, 5-(Adamantan-1-yloxymethyl)-2-cyclohexyl-1H-imidazole-4-carboxylic Acid (3-hydroxycarbamoyl-phenyl)-amide] | 26.9

molecular target: T2, CCKB receptor (Mus musculus, UniProt P56481); assay: CCKB receptor radioligand binding assay in mouse cortical membranes; conditions: [125I]-CCK8(S) 200 pM, 150 min at 21±3°, read-out: CCKB pKi (converted)
T2 construct: The whole brains from male mice (CD1 22-25 g; Charles River) were removed; from tissue; host or cells: cerebral cortex membranes of male CD1 mice
T2 sequence (P56481 1-453): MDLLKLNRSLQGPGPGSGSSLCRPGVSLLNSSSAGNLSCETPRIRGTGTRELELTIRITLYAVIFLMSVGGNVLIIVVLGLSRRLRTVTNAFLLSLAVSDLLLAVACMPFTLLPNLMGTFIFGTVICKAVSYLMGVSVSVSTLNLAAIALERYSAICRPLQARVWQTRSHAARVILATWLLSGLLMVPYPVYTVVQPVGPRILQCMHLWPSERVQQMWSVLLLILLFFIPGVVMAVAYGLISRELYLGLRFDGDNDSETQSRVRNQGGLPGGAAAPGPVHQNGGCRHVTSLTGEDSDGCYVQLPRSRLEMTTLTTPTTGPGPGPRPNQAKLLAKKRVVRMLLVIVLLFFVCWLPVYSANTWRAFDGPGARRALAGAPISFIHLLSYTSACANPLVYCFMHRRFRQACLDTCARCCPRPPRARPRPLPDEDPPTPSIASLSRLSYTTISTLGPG
Procedure: The compounds of the examples were tested for binding at the CCKB receptor in mouse cortical membranes by means of a radioligand binding assay. The procedure was as follows:
The whole brains from male mice (CD1 22-25 g; Charles River) were removed and placed in ice-cold buffer (pH 7.2 @ 21±3°) of the following composition (mM); 10 HEPES, 130 NaCl, 4.7 KCl, 5 MgCl2, 1 EDTA and containing 0.25 gl^−1 bacitracin. The cortex was dissected, weighed and homogenised in 40 ml ice-cold buffer using a Teflon-in-glass homogeniser. The homogenate was centrifuged at 39800 g for 20 min […], the supernatant discarded and the pellet resuspended by homogenisation in fresh buffer. The homogenate was recentrifuged (39800 g, 20 min @ 4°) and the final pellet was resuspended in HEPES buffer to give a tissue concentration of 20 mg ml^−1 (original wet weight).
The assay was terminated by rapid filtration through pre-soaked Whatman GF/B filters using a Brandell Cell Harvester. The filters were washed (3×3 ml) with ice-cold 50 mM Tris-HCl (pH 7.4 @ 4° C.) and bound radioactivity determined by counting (1 min) in a gamma-counter.

Row | Molecule | Ki [nM]
14 | Cc1ccccc1-c1nc(CCc2cccc(C(=O)O)c2)c(C(=O)NC23CC4CC(CC(C4)C2)C3)[nH]1 [Example 118, 3-{2-[5(Adamantan-1-ylcarbamoyl)-2-o-tolyl-1H-imidazole-4-yl]-ethyl}-benzoic Acid] | 776
15 | COc1ccc(-c2nc(C(=O)Nc3cc(C(=O)O)cc(C(=O)O)c3)c(CC3CCCCCC3)[nH]2)cc1 [Example 29, 5-[(5-Cycloheptylmethyl-2-(4-methoxy-phenyl)-1H-imidazole-4-carbonyl)-amino]-isophthalic Acid] | 1480
16 | O=C(O)CNC(=O)c1nc(-c2ccccc2F)[nH]c1CCC12CC3CC(CC(C3)C1)C2 [Example 53, 2-{[5-(2-Adamantan-1-yl-ethyl)-2-(2-fluoro-phenyl)-1H-imidazole-4-carbonyl]-amino}-acetic Acid] | 1660
17 | Cc1ncccc1-c1nc(C(=O)Nc2cccc(C(=O)O)c2)c(CCC23CC4CC(CC(C4)C2)C3)[nH]1 [Example 181, 3-{[5-(2-Adamantan-1-yl-ethyl)-2-(2-methyl-pyridine-3-yl)-1H-imidazole-4-carbonyl]-amino}-benzoic Acid] | 676
18 | O=C(O)c1cc(NC(=O)c2nc(-c3cccc4ccccc34)[nH]c2CC2CCCCCC2)cc(C(=O)O)c1 [Example 23, 5-[(5-Cycloheptylmethyl-2-naphthalen-1-yl-1H-imidazole-4-carbonyl)-amino]-isophthalic Acid] | 1230
19 | O=C(O)c1cc(NC(=O)c2nc(-c3ccc[nH]3)[nH]c2CC2CCCCCC2)cc(C(=O)O)c1 [Example 33, 5-[(5-Cycloheptylmethyl-2-(1H-pyrrol-2-yl)-1H-imidazole-4-carbonyl)-amino]-isophthalic Acid] | 1860
20 | O=C(O)c1cccc(NC(=O)c2nc(C(C3CCCCC3)C3CCCCC3)[nH]c2CCC23CC4CC(CC(C4)C2)C3)c1 [Example 128, 3-{[5-(2-Adamanatan-1-yl-ethyl)-2-dicyclohexylmethyl-1H-imidazole-4-carbonyl]-amino}-benzoic Acid] | 2140
21 | Cc1ccccc1-c1nc(C(=O)Nc2ccc(F)c(C(=O)O)c2F)c(CCC23CC4CC(CC(C4)C2)C3)[nH]1 [Example 248, 3-{[5-(2-Adamantan-1-yl-ethyl)-2-o-tolyl-1H-imidazole-4-carbonyl]-amino}-2,6-difluoro-benzoic Acid] | 25.7
22 | O=C(O)c1cc(NC(=O)c2nc(-c3ccccc3C(F)(F)F)[nH]c2CCC2CCCCCC2)cc(C(=O)O)c1 [Example 41, 5-{[5-(2-Cycloheptyl-ethyl)-2-(2-trifluoromethyl-phenyl)-1H-imidazole-4-carbonyl]-amino}-isophthalic Acid] | 4370
23 | O=C(Nc1cccc(-c2nnn[nH]2)c1)c1cc(-c2ccc3ccccc3c2)[nH]c1CC1CCCCCC1 [Example 16, 2-Cycloheptylmethyl-5-naphthalen-2-yl-1H-pyrrole-3-carboxylic Acid [3-(1H-tetrazol-5-yl)-phenyl]-amide] | 724
24 | O=C(O)c1cccc(NC(=O)c2nc(-c3ccncc3)[nH]c2CCC23CC4CC(CC(C4)C2)C3)c1 [Example 180, 3-{[5-(2-Adamantan-1-yl-ethyl)-2-pyridine-4-yl-1H-imidazole-4-carbonyl]-amino}-benzoic Acid] | 1860
25 | O=C(O)c1cccc(NC(=O)c2nc(-c3cc(Cl)cc(Cl)c3)[nH]c2CCC23CC4CC(CC(C4)C2)C3)c1 [Example 147, 3-{[5-(2-Adamantan-1-yl-ethyl)-2-(3,5-dichlorophenyl)-1H-imidazole-4-carbonyl]-amino}-benzoic Acid] | 912
